Measured values published in patent publication US4877893A, “Process for the preparation of 2-(O-alkyl)-2-thio-1,3,2-oxathiophospholanes” (priority 1987, dated 1989).

What was measured:
Assay in all cases: Fungicidal effect on infected agar nutrient media, colony diameter
Type in all cases: cell-based
Penicillium cyclopium = settings: 7th day after treatment, untreated 26.5
Protocol: (§1) Agar nutrient media (Diameter 70 MM, thickness 10 mm) infected by Sclerotonia sclerotinia suspension are treated with 20 EC formulations prepared according to Example 27 and comprising 1, 10, 100 and 1000 ppm, respectively of the active ingredient of the Formula I. The fungicidal effect of the compositions is evaluated on the 3rd day after treatment by measuring the diameter of the Fungi colonies.
The series of measureents described in Example 35 is carried out except that the agar nutrient media are infected by a Penicillium cyclopium Fungi strain and the test is evaluated on the 7th day after treatment.

Alternaria tenuis = settings: 5th day after treatment, untreated control 36.8
Protocol: as §1
The series of measurements according to Example 35 is carried out except that the agar nutrient media are infected by Alternaria Tenius and evaluation is accomplished on the 5th day after treatment.

Sclerotinia sclerotinia = settings: 3rd day after treatment, untreated control 41.7
Protocol: as §1

Row | SMILES | Diameter of colony (mm) (Penicillium cyclopium; 1 ppm) | Diameter of colony (mm) (Penicillium cyclopium; 10 ppm) | Diameter of colony (mm) (Penicillium cyclopium; 100 ppm) | Diameter of colony (mm) (Penicillium cyclopium; 1000 ppm) | Diameter of colony (mm) (Alternaria tenuis; 1 ppm) | Diameter of colony (mm) (Alternaria tenuis; 10 ppm) | Diameter of colony (mm) (Alternaria tenuis; 100 ppm) | Diameter of colony (mm) (Alternaria tenuis; 1000 ppm) | Diameter of colony (mm) (Sclerotinia sclerotinia; 1 ppm) | Diameter of colony (mm) (Sclerotinia sclerotinia; 10 ppm) | Diameter of colony (mm) (Sclerotinia sclerotinia; 100 ppm) | Diameter of colony (mm) (Sclerotinia sclerotinia; 1000 ppm)
1 | CC(CCl)OP1(=S)OC(C)CS1 (stereo not drawn) [Compound 19, 2-(0-1'-methyl-2'-chloroethyl)-2-thio-5-methyl-1,3,2-oxathiophospholane] | 21.5 mm | 15.6 mm | 5.5 mm | 0 mm | 32.3 mm | 21.7 mm | 4.3 mm | 0 mm | 36.5 mm | 27.4 mm | 3.9 mm | 0 mm
2 | CC(CBr)OP1(=S)OC(C)CS1 (stereo not drawn) [Compound 20] | 20.1 mm | 17.7 mm | 4.1 mm | 0 mm | 33.2 mm | 25.0 mm | 5.0 mm | 0 mm | 34.9 mm | 28.2 mm | 1.6 mm | 0 mm
3 | CC(CI)OP1(=S)OC(C)CS1 (stereo not drawn) [Compound 21, 2-(0-1'-methyl-2'-iodoethyl)-2-thio-5-methyl-1,3,2-oxathiophospholane] | 23.7 mm | 20.0 mm | 6.9 mm | 0 mm | 30.9 mm | 24.2 mm | 7.2 mm | 0 mm | 33.8 mm | 25.8 mm | 2.50 mm | 0 mm
4 | CC(Cl)COP1(=S)OC(C)CS1 (stereo not drawn) [Compound 22, 2-(0-2'-methyl-2'-chloroethyl)-2-thio-5-methyl-1,3,2-oxathiophospholane] | 24.6 mm | 16.2 mm | 6.7 mm | 0 mm | 34.4 mm | 26.1 mm | 8.7 mm | 0 mm | 37.8 mm | 30.1 mm | 2.9 mm | 0 mm
5 | CC(Br)COP1(=S)OC(C)CS1 (stereo not drawn) [Compound 23] | 22.6 mm | 15.8 mm | 4.3 mm | 0 mm | 33.8 mm | 24.1 mm | 5.2 mm | 0 mm | 36.9 mm | 29.7 mm | 3.6 mm | 0 mm
6 | CC(I)COP1(=S)OC(C)CS1 (stereo not drawn) [Compound 24] | 24.2 mm | 15.0 mm | 5.9 mm | 0 mm | 34.8 mm | 25.5 mm | 6.1 mm | 0 mm | 38.1 mm | 29.0 mm | 3.2 mm | 0 mm
7 | CC(Cl)COP1(=S)OCC(C)S1 (stereo not drawn) [Compound 25] | 26.0 mm | 19.8 mm | 7.8 mm | 0 mm | 33.8 mm | 24.0 mm | 6.5 mm | 0 mm | 38.8 mm | 30.3 mm | 1.0 mm | 0 mm
8 | CC(Br)COP1(=S)OCC(C)S1 (stereo not drawn) [Compound 26] | 20.5 mm | 18.8 mm | 8.5 mm | 0 mm | 34.2 mm | 21.1 mm | 6.2 mm | 0 mm | 40.9 mm | 32.1 mm | 1.6 mm | 0 mm
9 | CC(I)COP1(=S)OCC(C)S1 (stereo not drawn) [Compound 27] | 23.8 mm | 17.5 mm | 4.6 mm | 0 mm | 33.5 mm | 22.4 mm | 8.8 mm | 0 mm | 41.2 mm | 28.6 mm | 1.4 mm | 0 mm
10 | CC(Cl)C(C)OP1(=S)OCCS1 (stereo not drawn) [Compound 28] | 18.2 mm | 14.7 mm | 5.7 mm | 0 mm | 34.2 mm | 22.4 mm | 4.8 mm | 0 mm | 33.6 mm | 27.4 mm | 0 mm | 0 mm
11 | CC(Br)C(C)OP1(=S)OCCS1 (stereo not drawn) [Compound 29] | 25.0 mm | 19.2 mm | 8.0 mm | 0 mm | 33.2 mm | 23.6 mm | 6.5 mm | 0 mm | 31.9 mm | 25.2 mm | 1.2 mm | 0 mm
12 | CC(I)C(C)OP1(=S)OCCS1 (stereo not drawn) [Compound 30] | 21.2 mm | 20.0 mm | 7.2 mm | 0 mm | 30.1 mm | 26.7 mm | 7.2 mm | 0 mm | 34.8 mm | 30.0 mm | 0 mm | 0 mm
13 | CC1COP(=S)(OC(C)C(C)Cl)S1 (stereo not drawn) [Compound 31] | 23.6 mm | 14.9 mm | 9.0 mm | 0 mm | 36.0 mm | 23.6 mm | 8.1 mm | 0 mm | 37.4 mm | 29.2 mm | 4.0 mm | 0 mm
14 | CC1COP(=S)(OC(C)C(C)Br)S1 (stereo not drawn) [Compound 32] | 19.4 mm | 16.7 mm | 7.2 mm | 0 mm | 31.2 mm | 27.4 mm | 7.2 mm | 0 mm | 38.9 mm | 30.0 mm | 3.2 mm | 0 mm
